We go through 19 compounds from US10035778B2, “Meta-azacyclic amino benzoic acid derivatives as pan integrin antagonists” (Saint Louis University, priority 2015, dated 2018).

SMILES strings stand for the structures.

Format in all cases: in vivo
The nature of data set [1]: IV cassette pharmacokinetic study in male Sprague-Dawley rats (Saint Louis University). The conditions noted are these: plasma; male Sprague-Dawley rat, 1 mg/kg IV cassette, sampling to 24 h; read-out: plasma t½ after 1 mg/kg IV bolus dose in rat (converted). The method, then: (§1) A minimally sufficient volume of dimethylsulfoxide (DMSO) was added to each test compound to achieve solubilization. For intravenous (IV) delivery, compounds were then formulated as solutions in glycerol formal: saline (either 20:80 or 40:60 v/v) (Sigma Chemicals, St. Louis). For oral (PO) administration, compounds were formulated with 0.5% methylcellulose. Five to six compound solutions were combined into a singled mixed solution for IV and PO cassette administration with final DMSO concentrations <0.6% or <1.2%, for the IV and PO cassettes, respectively. Analytes were detected in test samples using an LC/MS/MS (liquid chromatography/mass spectrometry) system consisting of an LC-20AD pump (Shimadzu, Kyoto, Japan), an HTC PAL autosampler (Leap technologies, Carrboro, N.C.), and a Sciex API-4000 mass spectrometer in ESI mode (AB Sciex, Foster City, Calif.). An Amour C18 reverse phase column (Analytical Sales and Services, Pompton Plains, N.J.) was used for chromatographic separation.
(§2) Pharmacokinetic (PK) studies conducted at Saint Louis University used male Sprague-Dawley rats with an initial body weight of 200 to 220 g. IV PK studies were performed with the following compounds: Examples 1-3 and 5-17 and comparison compounds C12-C18, C29, and C30. Animals were allowed free access to food and water. Rats were individually housed and connected to jugular vein catheters. Each cassette formulation was administered intravenously to two rats (1 mL/kg body weight). Each cassette formulation contained 5-6 compounds at 1 mg/kg in either 20:80 or 40/60 glycerol formal/saline (v/v). Blood was collected manually via the catheter into lithium-heparin tubes at 0.017, 0.083, 0.5, 1, 2, 4, 6 and 24 hours post-dose. Animals were euthanized with CO2 at the end of the experiment.
(§3) Internal standard was added to all samples at 200 ng/mL (final), as well as 150 μL of acetonitrile. Plasma samples (50 μL total volume) were diluted with control nave rat plasma as appropriate to bring the sample measurement into the linear dynamic range of the standard curve. The samples were capped and mixed on a multi-plate vortexer for 5 minutes and centrifuged for 5 minutes at 3200 rmp. The supernant was transferred to 96-well sample plate and capped for LC/MS/MS analysis. Compounds were optimized and monitored for their respective MRM transitions. The mobile phases consisted of 0.1% formic acid (aqueous) and 100% acetonitrile (organic) with an Amour C18 reverse phase column (2.1×30 mm, 5 micron) at a flow rate of 0.35 mL/min. The starting phase was 10% acetonitrile for the 0.9 minutes then increased to 90% acetonitrile over 0.4 minutes, and was maintained for an additional 0.2 minutes before returning to 10% acetonitrile over 0.4 minutes. The 10% acetonitrile was held for an additional 1.6 minutes. Peak areas were integrated using Analyst 1.5.1 (AB Sciex, Foster City, Calif.).

The nature of data set [2]: Oral (PO) cassette pharmacokinetic study in male Sprague-Dawley rats. The conditions noted are these: plasma; male Sprague-Dawley rat, 2 mg/kg oral gavage cassette in 0.5% methylcellulose; read-out: AUC (0-inf) after a 2 mg/kg PO dose in rat. On the procedure:
as §1, §2
Oral PK studies were conducted with the following compounds: Examples 1-3 and 5-17 and comparison compounds C12, C14-16 and C29-30. The PO cassette formulations were administered via oral gavage to two rats (10 mL/kg body weight) containing 5-6 compounds per cassette. The oral dose was administered at 2 mg/kg/compound in 0.5% methylcellulose. Blood collection time points were 0.25, 0.5, 1, 2, 4, 6 and 24 hours post-dose into lithium-heparin tubes. Animals were euthanized with CO2 at the end of the experiment.
as §3

A short description of data set [3]: IV cassette pharmacokinetic study in female Sprague-Dawley rats (PRESCOS, LLC). The conditions noted are these: plasma; female Sprague-Dawley rat, 1 mg/kg IV cassette, sampling to 8 h (PRESCOS); read-out: plasma t½ after 1 mg/kg iv bolus dose in rat (converted). On the procedure:
Similar rat PK studies were conducted by PRESCOS, LLC (San Diego, Calif.) for comparison compounds C19-C28. Female Sprague-Dawley rats with an initial body weight of 195 to 220 g were used. Cassette formulations with 1 mg/kg/compound in 40/60 glycerol formal/saline were administered intravenously to three rats. The dosing volume for each animal was 5 mL/kg body weight. Blood samples were collected via a jugular vein catheter at 0.017, 0.25, 0.5, 1, 2, 4 and 8 hours post-dose into K2EDTA tubes. Animals were euthanized with CO2 at the end of the experiment. Sample processing and compound measurement by LC/MS/MS was performed by HT Laboratories (San Diego, Calif.).

For `CC(C)(O)c1cc(Cl)cc([C@H](CC(=O)O)NC(=O)CNC(=O)c2cc(O)cc(NC3=NCC(O)CN3)c2)c1` (stereo partly shown) [Example C16, reference compound], the half-life in data set [1] was 96 min. Also, in data set [2], the AUC(0-inf) worked out at 62 ng·h/mL.
As to `CC(C)(c1cc(Cl)cc([C@H](CC(=O)O)NC(=O)CNC(=O)c2cc(O)cc(NC3=NCC(O)CN3)c2)c1)C(F)(F)F` (stereo partly shown) [Example C23], the half-life in data set [3] was 12.6 min.
With `CC(C)(C)c1cc(Br)cc([C@H](CC(=O)O)NC(=O)CNC(=O)c2cc(O)cc(NC3=NCC(O)CN3)c2)c1` (stereo partly shown) [Example C12, reference compound], the half-life in data set [1] was 30 min. The AUC(0-inf) in data set [2] turned out to be 205 ng·h/mL.
For `O=C(O)C[C@H](NC(=O)CNC(=O)c1cc(O)cc(NC2=NCC(O)CN2)c1)c1ccccc1` (stereo partly shown) [Example C29, reference compound], in that order: below 4.8 min and below 1 ng·h/mL.
In the case of `O=C(O)C[C@H](NC(=O)CNC(=O)c1cc(O)cc(NC2=NCC(O)CN2)c1)c1cc(Br)cc(C2(C(F)F)CC2)c1` (stereo partly shown) [Example C28], the half-life in data set [3] was 18 min.
Regarding `CC(C)(C)c1cc(Br)c(O)c([C@H](CC(=O)O)NC(=O)CNC(=O)c2cc(O)cc(NC3=NCC(O)CN3)c2)c1` (stereo partly shown) [Example C13, reference compound], the half-life in data set [1] was 66 min.
On to `O=C(O)C[C@H](NC(=O)CNC(=O)c1cc(O)cc(NC2=NCC(O)CN2)c1)c1cc(Cl)cc(C2(CF)CCOCC2)c1` (stereo partly shown) [Example C22], for which, in data set [3], the half-life was 18 min.
On to `CC(C)(C)c1cc(Br)cc([C@H](CC(=O)O)NC(=O)CNC(=O)c2cccc(NC(=N)N)c2)c1` [Example C17, reference compound], for which, in data set [1], the half-life was 48 min.
Still for that read-out and setting: the value for `CC(C)(C)c1cc(Br)cc([C@H](CC(=O)O)NC(=O)CNC(=O)c2cccc(NC3=NCCN3)c2)c1` [Example C18, reference compound] was 72 min.
For the compound `CC(O)(c1cc(Cl)cc([C@H](CC(=O)O)NC(=O)CNC(=O)c2cc(O)cc(NC3=NCC(O)CN3)c2)c1)C(F)(F)F` (stereo partly shown) [Example C24], in data set [3], the half-life is 16.8 min.
On the same count and under the same terms, the value for `CC(C)(C)c1cc(C#N)cc([C@H](CC(=O)O)NC(=O)CNC(=O)c2cc(O)cc(NC3=NCC(O)CN3)c2)c1` (stereo partly shown) [Example C20] was 22.8 min; that for `CC(C)(O)c1cc([C@H](CC(=O)O)NC(=O)CNC(=O)c2cc(O)cc(NC3=NCC(O)CN3)c2)cc(C(F)(F)F)c1` (stereo partly shown) [Example C21] was 90 min.
Regarding `NC(=O)c1cc(Cl)cc([C@H](CC(=O)O)NC(=O)CNC(=O)c2cc(O)cc(NC3=NCC(O)CN3)c2)c1` (stereo partly shown) [Example C30, reference compound], the half-life in data set [1] was 96 min. Besides, the AUC(0-inf) in data set [2] is below 1 ng·h/mL.
For `CC(C)(O)c1cc(Br)cc([C@H](CC(=O)O)NC(=O)CNC(=O)c2cc(O)cc(NC3=NCC(O)CN3)c2)c1` (stereo partly shown) [Example C15, reference compound], in that order: 36 min and 87 ng·h/mL.
As to `CC(O)(c1cc([C@H](CC(=O)O)NC(=O)CNC(=O)c2cc(O)cc(NC3=NCC(O)CN3)c2)cc(C(F)(F)F)c1)C(F)(F)F` (stereo partly shown) [Example C27], the half-life in data set [3] was 12.6 min.
Same read-out and setting: the value for `N#CC1(c2cc(Cl)cc([C@H](CC(=O)O)NC(=O)CNC(=O)c3cc(O)cc(NC4=NCC(O)CN4)c3)c2)CCOCC1` (stereo partly shown) [Example C26] was 15 min.
Turning to `CC(C)(C)c1cc(Br)cc([C@H](CC(=O)O)NC(=O)CNC(=O)c2cc(O)cc(NC3=NCC(O)CN3)c2)c1O` (stereo partly shown) [Example C14, reference compound], in data set [1], the half-life is 60 min. Also, the AUC(0-inf) in data set [2] is 224 ng·h/mL.
As to `CC(C)(C#N)c1cc(Br)cc([C@H](CC(=O)O)NC(=O)CNC(=O)c2cc(O)cc(NC3=NCC(O)CN3)c2)c1` (stereo partly shown) [Example C19], the half-life in data set [3] is 25.8 min.
Same read-out and setting: the value for `N#CC1(c2cc(Cl)cc([C@H](CC(=O)O)NC(=O)CNC(=O)c3cc(O)cc(NC4=NCC(O)CN4)c3)c2)CCC1` (stereo partly shown) [Example C25] was 13.8 min.
